Test results published in ChEMBL document CHEMBL1201862, “PubChem BioAssay data set” (2004).
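Exposure lasted 48 hours, with cells grown in 96-well plates and compounds tested at five concentrations. GI50 is the concentration that inhibits growth by half.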 Activity calls are given as the source filed them. Rule as the data show it: active = GI50 up to about 1.1 µM and inactive = higher.

How the values were obtained:
Test in all cases: inhibition of tumour cell growth, NCI panel, 48 h
786-0 = tested on: 786-0
A549 = tested on: A549
BT-549 = tested on: BT-549
CAKI-1 = tested on: CAKI-1
CCRF-CEM = tested on: CCRF-CEM
COLO 205 = tested on: COLO 205
DU-145 = tested on: DU-145
EKVX = tested on: EKVX
HCC 2998 = tested on: HCC 2998
HCT-116 = tested on: HCT-116
HCT-15 = tested on: HCT-15
HL-60 = tested on: HL-60
HOP-92 = tested on: HOP-92
HT-29 = tested on: HT-29
Hs-578T = tested on: Hs-578T
IGROV-1 = tested on: IGROV-1
K562 = tested on: K562
KM12 = tested on: KM12
LOX IMVI = tested on: LOX IMVI
M14 = tested on: M14
MCF7 = tested on: MCF7
MDA-MB-231 = tested on: MDA-MB-231
MDA-MB-435 = tested on: MDA-MB-435
MDA-N = tested on: MDA-N
MOLT-4 = tested on: MOLT-4
NCI-H226 = tested on: NCI-H226
NCI-H23 = tested on: NCI-H23
NCI-H460 = tested on: NCI-H460
NCI-H522 = tested on: NCI-H522
NCI/ADR-RES = tested on: NCI/ADR-RES
OVCAR-3 = tested on: OVCAR-3
OVCAR-4 = tested on: OVCAR-4
OVCAR-5 = tested on: OVCAR-5
OVCAR-8 = tested on: OVCAR-8
PC-3 = tested on: PC-3
RPMI-8226 = tested on: RPMI-8226
SF-268 = tested on: SF-268
SF-295 = tested on: SF-295
SF-539 = tested on: SF-539
SK-MEL-28 = tested on: SK-MEL-28
SK-MEL-2 = tested on: SK-MEL-2
SK-MEL-5 = tested on: SK-MEL-5
SK-OV-3 = tested on: SK-OV-3
SN12C = tested on: SN12C
SNB-19 = tested on: SNB-19
SNB-75 = tested on: SNB-75
SR = tested on: SR
SW-620 = tested on: SW-620
T47D = tested on: T47D
TK-10 = tested on: TK-10
U-251 = tested on: U-251
UACC-257 = tested on: UACC-257
UACC-62 = tested on: UACC-62
UO-31 = tested on: UO-31
A498 = tested on: A498
ACHN = tested on: ACHN
HOP-62 = tested on: HOP-62
Malme-3M = tested on: Malme-3M
RXF 393 = tested on: RXF 393

## Cc1sc2nc3n(sc4nc5sc(C)c(C)c5c(=O)n43)c(=O)c2c1C
786-0
  GI50: > 100 µM (inactive)
A549
  GI50: > 100 µM (inactive)
BT-549
  GI50: 70.5 µM (inactive)
CAKI-1
  GI50: 66.1 µM (inactive)
CCRF-CEM
  GI50: 16.4 µM (inactive)
COLO 205
  GI50: > 100 µM (inactive)
DU-145
  GI50: > 100 µM (inactive)
EKVX
  GI50: 30.3 µM (inactive)
HCC 2998
  GI50: > 100 µM (inactive)
HCT-116
  GI50: > 100 µM (inactive)
HCT-15
  GI50: > 100 µM
HL-60
  GI50: 40.3 µM (inactive)
HOP-92
  GI50: > 100 µM (inactive)
HT-29
  GI50: > 100 µM (inactive)
Hs-578T
  GI50: > 100 µM (inactive)
IGROV-1
  GI50: > 100 µM (inactive)
K562
  GI50: 93.8 µM (inactive)
KM12
  GI50: > 100 µM (inactive)
LOX IMVI
  GI50: > 100 µM (inactive)
M14
  GI50: > 100 µM (inactive)
MCF7
  GI50: 82.4 µM (inactive)
MDA-MB-231
  GI50: 80.5 µM (inactive)
MDA-MB-435
  GI50: > 100 µM (inactive)
MDA-N
  GI50: > 100 µM (inactive)
MOLT-4
  GI50: 23 µM (inactive)
NCI-H226
  GI50: > 100 µM (inactive)
NCI-H23
  GI50: > 100 µM (inactive)
NCI-H460
  GI50: > 100 µM (inactive)
NCI-H522
  GI50: 16.4 µM (inactive)
NCI/ADR-RES
  GI50: > 100 µM (inactive)
OVCAR-3
  GI50: > 100 µM (inactive)
OVCAR-4
  GI50: 63.8 µM (inactive)
OVCAR-5
  GI50: > 100 µM (inactive)
OVCAR-8
  GI50: > 100 µM (inactive)
PC-3
  GI50: > 100 µM (inactive)
RPMI-8226
  GI50: > 100 µM (inactive)
SF-268
  GI50: > 100 µM (inactive)
SF-295
  GI50: > 100 µM (inactive)
SF-539
  GI50: > 100 µM (inactive)
SK-MEL-28
  GI50: > 100 µM (inactive)
SK-MEL-2
  GI50: > 100 µM (inactive)
SK-MEL-5
  GI50: > 100 µM (inactive)
SK-OV-3
  GI50: > 100 µM (inactive)
SN12C
  GI50: > 100 µM (inactive)
SNB-19
  GI50: > 100 µM (inactive)
SNB-75
  GI50: 4.81 µM (inactive)
SR
  GI50: 75.5 µM (inactive)
SW-620
  GI50: 45.9 µM (inactive)
T47D
  GI50: 0.935 µM (active)
TK-10
  GI50: > 100 µM (inactive)
U-251
  GI50: > 100 µM (inactive)
UACC-257
  GI50: > 100 µM (inactive)
UACC-62
  GI50: 33.2 µM (inactive)
UO-31
  GI50: > 100 µM (inactive)

## c1csc(-c2cc(-c3ccsc3)c(-c3cccs3)s2)c1
786-0
  GI50: > 100 µM (inactive)
A498
  GI50: > 100 µM (inactive)
A549
  GI50: 92.7 µM (inactive)
ACHN
  GI50: 99.5 µM (inactive)
BT-549
  GI50: 46.2 µM (inactive)
CAKI-1
  GI50: > 100 µM (inactive)
CCRF-CEM
  GI50: 28.8 µM (inactive)
COLO 205
  GI50: 23.1 µM (inactive)
DU-145
  GI50: > 100 µM (inactive)
EKVX
  GI50: 16 µM (inactive)
HCC 2998
  GI50: 55.8 µM (inactive)
HCT-116
  GI50: 29.8 µM (inactive)
HCT-15
  GI50: 44.1 µM
HOP-62
  GI50: > 100 µM (inactive)
HOP-92
  GI50: 32.2 µM (inactive)
HT-29
  GI50: 43.6 µM (inactive)
Hs-578T
  GI50: > 100 µM (inactive)
K562
  GI50: 69.8 µM (inactive)
KM12
  GI50: 31.8 µM (inactive)
M14
  GI50: 56.1 µM (inactive)
MCF7
  GI50: 6.75 µM (inactive)
MDA-MB-231
  GI50: 29.8 µM (inactive)
MDA-MB-435
  GI50: 39.4 µM (inactive)
MDA-N
  GI50: 32 µM (inactive)
MOLT-4
  GI50: 30.1 µM (inactive)
Malme-3M
  GI50: 59.2 µM (inactive)
NCI-H226
  GI50: > 100 µM (inactive)
NCI-H23
  GI50: 58.7 µM (inactive)
NCI-H460
  GI50: 43.5 µM (inactive)
NCI-H522
  GI50: 61.7 µM (inactive)
NCI/ADR-RES
  GI50: > 100 µM (inactive)
OVCAR-3
  GI50: > 100 µM (inactive)
OVCAR-4
  GI50: > 100 µM (inactive)
OVCAR-5
  GI50: > 100 µM (inactive)
OVCAR-8
  GI50: > 100 µM (inactive)
PC-3
  GI50: > 100 µM (inactive)
RXF 393
  GI50: 49.8 µM (inactive)
SF-268
  GI50: > 100 µM (inactive)
SF-295
  GI50: > 100 µM (inactive)
SF-539
  GI50: > 100 µM (inactive)
SK-MEL-28
  GI50: 41.3 µM (inactive)
SK-MEL-5
  GI50: 53.6 µM (inactive)
SN12C
  GI50: > 100 µM (inactive)
SNB-19
  GI50: > 100 µM (inactive)
SNB-75
  GI50: 17.9 µM (inactive)
SR
  GI50: 36.9 µM (inactive)
SW-620
  GI50: 74.3 µM (inactive)
T47D
  GI50: 2.7 µM (inactive)
TK-10
  GI50: > 100 µM (inactive)
U-251
  GI50: 81.3 µM (inactive)
UACC-257
  GI50: 56.2 µM (inactive)
UACC-62
  GI50: 48.4 µM (inactive)
UO-31
  GI50: 76.2 µM (inactive)

## C/C=C\C1OC1(C)c1cc(=O)c2c(C)cc3c(c2o1)C(=O)c1c(O)c(C2CC(C)(N(C)C)C(OC(C)=O)C(C)O2)cc(C2CC(N(C)C)C(O)C(C)O2)c1C3=O (stereo not given)
786-0
  GI50: < 0.00375 µM (active)
A498
  GI50: 0.00875 µM (active)
A549
  GI50: < 0.00375 µM (active)
ACHN
  GI50: < 0.00375 µM (active)
BT-549
  GI50: 0.00596 µM (active)
CAKI-1
  GI50: < 0.00375 µM (active)
CCRF-CEM
  GI50: < 0.00375 µM (active)
COLO 205
  GI50: < 0.00375 µM (active)
DU-145
  GI50: 0.00405 µM (active)
EKVX
  GI50: 0.00836 µM (active)
HCC 2998
  GI50: < 0.00375 µM (active)
HCT-116
  GI50: < 0.00375 µM (active)
HCT-15
  GI50: 0.00404 µM
HOP-62
  GI50: < 0.00375 µM (active)
HOP-92
  GI50: 0.00593 µM (active)
HT-29
  GI50: < 0.00375 µM (active)
Hs-578T
  GI50: 0.00766 µM (active)
IGROV-1
  GI50: 0.00569 µM (active)
K562
  GI50: < 0.00375 µM (active)
KM12
  GI50: 0.0042 µM (active)
LOX IMVI
  GI50: < 0.00375 µM (active)
M14
  GI50: < 0.00375 µM (active)
MCF7
  GI50: < 0.00375 µM (active)
MDA-MB-231
  GI50: 0.0067 µM (active)
MDA-MB-435
  GI50: 0.00449 µM (active)
MDA-N
  GI50: 0.0043 µM (active)
MOLT-4
  GI50: < 0.00375 µM (active)
Malme-3M
  GI50: 0.0124 µM (active)
NCI-H226
  GI50: 0.00461 µM (active)
NCI-H23
  GI50: < 0.00375 µM (active)
NCI-H460
  GI50: < 0.00375 µM (active)
NCI-H522
  GI50: < 0.00375 µM (active)
NCI/ADR-RES
  GI50: 0.00409 µM (active)
OVCAR-3
  GI50: 0.00451 µM (active)
OVCAR-4
  GI50: 0.00461 µM (active)
OVCAR-5
  GI50: 0.00546 µM (active)
OVCAR-8
  GI50: < 0.00375 µM (active)
PC-3
  GI50: 0.00405 µM (active)
RPMI-8226
  GI50: < 0.00375 µM (active)
RXF 393
  GI50: < 0.00375 µM (active)
SF-268
  GI50: 0.00516 µM (active)
SF-295
  GI50: < 0.00375 µM (active)
SF-539
  GI50: 0.00433 µM (active)
SK-MEL-28
  GI50: 0.0152 µM (active)
SK-MEL-2
  GI50: 0.00463 µM (active)
SK-MEL-5
  GI50: 0.00414 µM (active)
SK-OV-3
  GI50: 0.00432 µM (active)
SN12C
  GI50: < 0.00375 µM (active)
SNB-19
  GI50: 0.00621 µM (active)
SNB-75
  GI50: < 0.00375 µM (active)
SR
  GI50: < 0.00375 µM (active)
SW-620
  GI50: < 0.00375 µM (active)
T47D
  GI50: 0.00386 µM (active)
TK-10
  GI50: 0.0113 µM (active)
U-251
  GI50: < 0.00375 µM (active)
UACC-257
  GI50: 0.00984 µM (active)
UACC-62
  GI50: < 0.00375 µM (active)
UO-31
  GI50: 0.00509 µM (active)
